Experimental data taken from patent publication US20080318960A1, “PAR2-modulating compounds and their use” (priority 2005, published 2008).

Assays:
Type in all cases: cell-based
human PAR2 [1] = target: T1, human PAR2 (Homo sapiens, UniProt P55085); assay: Receptor Selection and Amplification Technology (R-SAT) functional receptor assay; parameters: expressed in transfected cells; host or cells: NIH3T3 cells, pSI-derived mammalian expression vector; conditions: for EC50: NIH3T3 cells transfected with PAR2, PAR2 activation, negative log of EC50 in Molar; for Emax: NIH3T3 cells transfected with PAR2, percent maximal activation relative to SLIGRL, read-out: % Efficacy
T1 sequence (P55085 26-397): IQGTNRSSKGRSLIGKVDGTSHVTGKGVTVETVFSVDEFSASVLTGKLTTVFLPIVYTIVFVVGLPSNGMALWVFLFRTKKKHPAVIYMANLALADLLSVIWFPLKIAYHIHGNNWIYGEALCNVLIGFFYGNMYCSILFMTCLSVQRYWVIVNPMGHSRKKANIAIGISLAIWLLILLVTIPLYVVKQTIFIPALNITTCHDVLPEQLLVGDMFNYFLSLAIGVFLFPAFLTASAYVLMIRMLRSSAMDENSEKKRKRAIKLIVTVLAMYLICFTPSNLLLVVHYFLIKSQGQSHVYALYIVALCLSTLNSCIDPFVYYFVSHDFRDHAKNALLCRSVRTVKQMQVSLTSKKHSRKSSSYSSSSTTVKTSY
Protocol: The functional receptor assay, Receptor Selection and Amplification Technology (R-SAT), was used to investigate the pharmacological properties of known and novel PAR2 compounds. R-SAT is disclosed in U.S. Pat. Nos. 5,707,798, 5,912,132, and 5,955,281, all of which are hereby incorporated herein by reference in their entirety, including any drawings.
Briefly, NIH3T3 cells were grown in 96 well tissue culture plates to 70-80% confluence. Cells were transfected for 16-20 h with plasmid DNAs using Polyfect (Qiagen Inc.) as per manufacturer's protocols. R-SATs were generally performed with 4 ng/well of receptor and 20 ng/well of β-galactosidase plasmid DNA. All receptor constructs used were in the pSI-derived mammalian expression vector (Promega Inc) as described previously. The PAR2 gene was amplified by PCR from genomic DNA using oligodeoxynucleotide primers based on the published sequence (GenBank Accession # Z49993 and Z49994). For large-scale transfections, cells were transfected for 16-20 h, then trypsinized and frozen in DMSO. Frozen cells were later thawed, plated at ˜10,000 cells per well of a 96 half-area well plate that contained drug. With both methods, cells were then grown in a humidified atmosphere with 5% ambient CO2 for five days. Media was then removed from the plates and marker gene activity was measured by the addition of the β-galactosidase substrate o-nitrophenyl β-D-galactopyranoside (ONPG, in PBS with 0.5% NP-40). The resulting colorimetric reaction was measured in a spectrophotometric plate reader (Titertek Inc.) at 420 nm. All data were analyzed using the computer program XLFit (IDBSm). Efficacy is the percent maximal activation compared to activation by a control compound, the PAR2 activating hexapeptide SLIGRL (serine-leucine-isoleucine-glycine-arginine-leucine). pEC50 is the negative of the log (EC50), where EC50 is the calculated concentration in Molar that produces 50% maximal activation.
These experiments provide a molecular profile, or fingerprint, for each of these agents at human PAR2.
Efficacy is relative to that of SLIGRL.

human PAR2 [2] = target: T1, human PAR2; assay: Determination of changes in cytosolic calcium in transfected CHO-K1 cells; conditions: intracellular calcium mobilization; for EC50: CHO-K1 cells transfected with PAR2, Fura-2; for Emax: CHO-K1 cells transfected with PAR2, response compared to SLIGRL at 100 nM, read-out: % Efficacy
Protocol: 1. CHO-K1 cells transfected with PAR2 or a control receptor at a density 1-3×10^6 cells/ml are washed with phosphate-buffered saline.
2. Cells are loaded with 2 μM Fura-2 and analyzed with respect to the rise in intracellular calcium in the presence or absence of varying concentration of compound.
3. The response is compared to that elicited by the application of the standard reference ligand SLIGRL when tested at 100 nM.
Intracellular free calcium concentrations are calculated using the formula:
where Kd for Fura-2 is 224 nM, Fmax is the fluorescence in the presence of 0.04% Triton-X100 and Fmin is the fluorescence obtained after the addition of 5 mM EGTA in 30 mM Tris-HCl, pH7.4.
As shown in Table 2 and FIG. 3, these experiments have shown these agents act at human PAR2 to stimulate intracellular calcium mobilization.

human PAR2 [3] = target: T1, human PAR2; assay: Determination of changes in inositol phosphates in transfected tsA cells; conditions: inositol phosphate hydrolysis, transfected tsA cells (transformed HEK293), 45 min with ligand; for Emax: TS/A, read-out: % Efficacy
Protocol: Seed tsA cells (a transformed HEK293 cell line) at 10,000 cells/0.1 ml per well of 96 well plates at 37 C in a humidified 5% CO2 incubator in DMEM supplemented with 10% fetal calf serum, penicillin (100 units/ml) and streptomycin ([…]) and grown overnight.
Transfect the cells with plasmid DNAs coding receptors or G-protein helpers when needed using PolyFect according to the RSAT protocol described previously. At 18-20 h post-transfection, the medium is removed and the cells are labeled overnight with 2 uCi/ml myo-[2-3H] inositol (0.1 ml/well) freshly made in the culture medium.
Remove the medium and wash cells with Hank's Balanced Salt Solutions (HBSS) containing 1 mM CaCl2, 1 mM MgCl2, 20 mM LiCl and 0.1% BSA. The cells are then incubated with ligands for 45 min at 37 C (0.1 ml/well) and the reaction is stopped by exchanging the buffer with 150 ul/well ice-cold 20 mM formic acid. Add 50 ul/well 0.2M ammonium and store plates at −80 C or process samples immediately.
To separate total [3H] inositol phosphates (IPs) ion-exchange chromatography columns are loaded with 200 ul of AG 1-X8 resin suspension (50% resin and 50% water) and the cell extracts were applied to the columns. Wash the columns with 1 ml 40 mM ammonium hydroxide (pH9) and elute [3H] IPs into the 2 ml deep-well blocks with 0.4 ml 2M ammonium format/0.1M formic acid. Wash the columns with 0.6 ml water. Transfer the eluates into 7 ml scintillation vials and add 5 ml liquid scintillation cocktail. Mix well, leave the vials in the dark for at least 4 h and count on LS 6500 Multi-purpose Scintillation Counter (3 min/vial). This procedure collects IP1, IP2 and IP3.
As shown in Table 3 and FIG. 4, these experiments have shown these agents act at human PAR2 to stimulate inositol phosphate hydrolysis.

| EC50 (human PAR2 [1]) | Emax (human PAR2 [1]) | EC50 (human PAR2 [2]) | Emax (human PAR2 [2]) | Emax (human PAR2 [3]) | EC50 (human PAR2 [3]) | SMILES |
| --- | --- | --- | --- | --- | --- | --- |
| 316 nM | 118% |  |  |  |  | C/C(=N\NC(=O)C(NC(=O)c1ccccc1)c1n[nH]c(=O)c2ccccc12)c1cccc(C)c1 (stereo not drawn) [Compound 31, N-[2-{(2E)-2-[1-(3-methylphenyl)ethylidene]hydrazino}-2-oxo-1-(4-oxo-3,4-dihydro-1-phthalazinyl)ethyl]benzamide] |
| 251 nM | 77% |  |  |  |  | C/C(=N\NC(=O)C(NC(=O)c1ccccc1)c1n[nH]c(=O)c2ccccc12)c1cccc(C(F)(F)F)c1 (stereo not drawn) [Compound 27, N-[2-oxo-1-(4-oxo-3,4-dihydro-1-phthalazinyl)-2-((2E)-2-{1-[3-(trifluoromethyl)phenyl]ethylidene}hydrazino)ethyl]benzamide] |
| 316 nM | 132% |  |  |  |  | C/C(=N\NC(=O)C(NC(=O)c1ccccc1)c1n[nH]c(=O)c2ccccc12)c1cccc(C#N)c1 (stereo not drawn) [Compound 29, N-[2-{(2E)-2-[1-(3-cyanophenyl)ethylidene]hydrazino}-2-oxo-1-(4-oxo-3,4-dihydro-1-phthalazinyl)ethyl]benzamide] |
| 158 nM | 112% |  |  |  |  | C/C(=N\NC(=O)C(NC(=O)c1ccccc1)c1n[nH]c(=O)c2ccccc12)c1cccc(Cl)c1 (stereo not drawn) [Compound 28, N-[2-{(2E)-2-[1-(3-chlorophenyl)ethylidene]hydrazino}-2-oxo-1-(4-oxo-3,4-dihydro-1-phthalazinyl)ethyl]benzamide] |
| 126 nM | 98% | 3980 nM | 72% | 120% | 2510 nM | C/C(=N\NC(=O)C(NC(=O)c1ccccc1)c1n[nH]c(=O)c2ccccc12)c1cccc(Br)c1 (stereo not drawn) [Compound 3, N-[2-{(2E)-2-[1-(3-bromophenyl)ethylidene]hydrazino}-2-oxo-1-(4-oxo-3,4-dihydro-1-phthalazinyl)ethyl]benzamide] |
| 794 nM | 79% |  |  |  |  | COc1cccc(/C(C)=N/NC(=O)C(NC(=O)c2ccccc2)c2n[nH]c(=O)c3ccccc23)c1 (stereo not drawn) [Compound 6, N-[2-{(2E)-2-[1-(3-methoxyphenyl)ethylidene]hydrazino}-2-oxo-1-(4-oxo-3,4-dihydro-1-phthalazinyl)ethyl]benzamide] |
| 79.4 nM | 122% | 7940 nM | 85% | 130% | 10000 nM | C/C(=N\NC(=O)C(NC(=O)c1ccccc1)c1n[nH]c(=O)c2ccccc12)c1cc(C)cc(C)c1 (stereo not drawn) [Compound 43, N-[2-{(2E)-2-[1-(3,5-dimethylphenyl)ethylidene]hydrazino}-2-oxo-1-(4-oxo-3,4-dihydro-1-phthalazinyl)ethyl]benzamide] |
| 501 nM | 111% |  |  |  |  | CC/C(=N\NC(=O)C(NC(=O)c1ccccc1)c1n[nH]c(=O)c2ccccc12)c1cccc(Br)c1 (stereo not drawn) [Compound 25, N-[2-{(2E)-2-[1-(3-bromophenyl)propylidene]hydrazino}-2-oxo-1-(4-oxo-3,4-dihydro-1-phthalazinyl)ethyl]benzamide] |
